Key:
[1] = Bioavailability study in rat; format: in vivo; settings: i.v and p.o, 10 mg/kg, 20% Tween 80
Protocol: (§1) Bioavailability of COMPOUND 3, COMPOUND 4 and COMPOUND 5 was studied in mouse and rat. All the compounds were administered (i.v and p.o, 10 mg/kg) using the same vehicle (i.e., 20% Tween 80).

[2] = Metabolism in rat liver microsome (HPLC/MS); format: in vitro ADME; settings: 5 minutes to 1 hour
Protocol: (§2) FIG. 10. Metabolism analysis of COMPOUND3 • A. The diode Array trace (upper panel) and the total ion current (lower panel) for COMPOUND3 and metabolites thereof in rat. • B. The diode Array trace (upper panel) and the total ion current (lower panel) for COMPOUND3 and metabolites thereof in human.
(§3) Metabolism of COMPOUND 3 was analyzed by incubating the compound with rat or human liver microsome for 5 minutes to 1 hour, fractioning extracts of treated microsome through HPLC and subjecting the fractions to MS analysis.

[3] = Metabolism in human liver microsome (HPLC/MS); format: in vitro ADME; settings: 5 minutes to 1 hour
Protocol: as §2, §3

[4] = test system: HL60; settings: HL60, Leukemia
Protocol: (§4) Cytotoxicity of COMPOUND 3 (an analog of COMPOUND 1, FIG. 1A) and other anticancer therapeutics were measured using cancer cells with various origins.

[5] = test system: RPM17951; settings: RPM17951, Melanoma
Protocol: as §4

[6] = test system: MCF7; settings: MCF7, Breast
Protocol: as §4

[7] = test system: PC3; settings: PC3, Prostate
Protocol: as §4

[8] = test system: 293; settings: 293, Renal
Protocol: as §4

[9] = test system: A549; settings: A549, Lung
Protocol: as §4

[10] = Bioavailability study in mouse; format: in vivo; settings: i.v and p.o, 10 mg/kg, 20% Tween 80
Protocol: as §1

[11] = test system: Min mouse; assay: Polyp number in Min mouse model; format: in vivo
Protocol: COMPOUND 4, COMPOUND 5, or vehicle was administrated in wild type and Min mice. COMPOUND 4 is also an analog of COMPOUND 1 (FIG. 1A). The numbers of polyp formed in small intestine and colon of these mice after various treatments were measured (Table 6).

Row | Bioavailability [10] [%] | SMILES | Bioavailability [1] | Metabolites observed [2] | Metabolites observed [3] | Cytotoxicity [4] [µg/mL] | Cytotoxicity [5] [µg/mL] | Cytotoxicity [6] [µg/mL] | Cytotoxicity [7] [µg/mL] | Cytotoxicity [8] [µg/mL] | Cytotoxicity [9] [µg/mL] | Effect on number of polyp compared to vehicle control ([11]; Min mice, about 300 mpk) | Polyp Number (Mean + S.D.), Total ([11]; Min mouse) | Polyp Number (Mean + S.D.), Colon ([11]; Min mouse, 100 mpk) | Polyp Number (Mean + S.D.), Small intestine ([11]; Min mouse, 100 mpk) | Polyp Number (Mean + S.D.), Colon ([11]; Min mouse, 300 mpk) | Polyp Number (Mean + S.D.), Small intestine ([11]; Min mouse, 300 mpk) | Polyp Number (Mean + S.D.), Total ([11]; Min mouse, 300 mpk) | % Inhibition vs. VH ([11]; Min mouse, 300 mpk, total polyp number vs. vehicle) [%]
1 | – | CN1CC(=O)N2C(Cc3ccc(O)cc3)C(=O)N(Cc3cccc4ccccc34)CC2N1C(=O)NCc1ccccc1 (stereo not drawn) [COMPOUND 3] | about 24% | Several metabolites (e.g., M1, M2, M3) were observed | Several metabolites (e.g., M1, M2, M3) were observed | 1.243 | 0.936 | 7.355 | 1.207 | 0.731 | 1.386 | – | – | – | – | – | – | – | –
2 | ~0 | CN1CC(=O)N2C(Cc3ccc(O)cc3)C(=O)N(Cc3ccc(F)cc3F)CC2N1C(=O)NCc1ccccc1 (stereo not drawn) [COMPOUND 5] | – | – | – | – | – | – | – | – | – | reduce the number of polyp | 71.4 ± 23.0 | 1.7 ± 1.5 | 69.2 ± 20.8 | 1.1 ± 1.2 | 46.1 ± 17.1 | 47.0 ± 16.9 | 31

— US7531320B2, “Modulation of β-catenin/TCF-activated transcription” (priority 2003, dated 2009)
